Measured values reported in US6358698B1 (Acadia Pharmacueticals Inc., priority 1998, dated 2002).
Where two headings read alike, the source gives them in different places.

Experiments:
human 5-HT2C receptor = biological target: T1, human 5-HT2C receptor (Homo sapiens, UniProt P28335); assay: R-SAT functional assay, constitutively active wild type 5-HT2C receptor; assay type: cell-based; settings: for EC50: read-out: 5-HT2C Receptor Negative Log EC50 (inverse agonism) (converted); for 5-HT2C Receptor Negative Log EC50 (inverse agonism): Table 3, 50 ng per well receptor DNA, assayed as agonists and inverse agonists
T1 construct: expressed in transfected cells; host or cells: not restated for 5-HT2C; R-SAT as for 5-HT2A (NIH 3T3)
T1 sequence (P28335 33-458): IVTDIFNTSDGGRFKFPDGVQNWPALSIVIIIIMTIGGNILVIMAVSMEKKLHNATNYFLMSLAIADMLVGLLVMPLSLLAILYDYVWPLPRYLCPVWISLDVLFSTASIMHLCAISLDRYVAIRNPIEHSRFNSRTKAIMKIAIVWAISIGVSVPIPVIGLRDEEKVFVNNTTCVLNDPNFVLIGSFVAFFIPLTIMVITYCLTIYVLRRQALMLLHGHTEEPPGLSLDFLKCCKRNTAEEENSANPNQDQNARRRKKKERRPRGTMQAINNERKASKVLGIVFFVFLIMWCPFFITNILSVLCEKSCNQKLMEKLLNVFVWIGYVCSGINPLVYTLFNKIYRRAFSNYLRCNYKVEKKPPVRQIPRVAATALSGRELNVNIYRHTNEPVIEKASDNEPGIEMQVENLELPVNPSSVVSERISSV

5-HT2A receptor = biological target: T2, 5-HT2A receptor (Homo sapiens, UniProt P28223); assay: R-SAT functional assay, constitutively active wild type 5-HT2A receptor in NIH 3T3 cells; assay type: cell-based; settings: for Negative LOG EC50 (inverse agonism, inhibition of constitutive activity): Table 2, molar negative log EC50, mean of three dose response experiments +/- standard error, 50 ng/well DNA
T2 construct: expressed in transfected cells; host or cells: NIH 3T3 (mouse fibroblast)

[1] = Table 3, 50 ng/well receptor DNA, read-out: 5-HT2A Receptor Negative Log EC50 (inverse agonism) (converted)
[2] = read-out: Negative LOG EC50 (inverse agonism, inhibition of constitutive activity) (converted)
[3] = compounds screened at 300-500 nM, 50 ng/well receptor DNA, inhibition from basal, referenced to ritanserin (90-100%), mean of duplicates
[4] = Table 3, 50 ng/well receptor DNA
[5] = compounds screened at 300-500 nM, 50 ng/well receptor DNA, […], mean of duplicates

T2 sequence (P28223 whole entry): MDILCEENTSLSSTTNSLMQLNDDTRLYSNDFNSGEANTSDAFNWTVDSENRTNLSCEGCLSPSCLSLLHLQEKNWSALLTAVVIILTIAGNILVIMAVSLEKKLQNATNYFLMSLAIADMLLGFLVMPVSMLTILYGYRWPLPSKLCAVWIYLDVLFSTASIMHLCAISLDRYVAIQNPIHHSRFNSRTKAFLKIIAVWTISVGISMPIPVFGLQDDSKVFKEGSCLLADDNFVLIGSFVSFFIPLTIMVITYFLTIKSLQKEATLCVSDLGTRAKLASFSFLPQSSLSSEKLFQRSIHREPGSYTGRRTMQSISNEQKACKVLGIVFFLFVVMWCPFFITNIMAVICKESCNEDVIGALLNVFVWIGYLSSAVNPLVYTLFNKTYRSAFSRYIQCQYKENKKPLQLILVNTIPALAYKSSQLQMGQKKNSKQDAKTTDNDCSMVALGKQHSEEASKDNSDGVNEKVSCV

OCCN1CCN([C@@H]2C[C@@H](c3ccc(F)cc3)c3ccc(C(F)(F)F)cc32)CC1 (racemic) [Tefludazine]
EC50 (human 5-HT2C receptor): 5.25 nM | EC50 (5-HT2A receptor; [1]): 0.955 nM | EC50 (5-HT2A receptor; [2]): 0.955 nM

N[C@@H](Cc1c[nH]c2ccc(O)cc12)C(=O)O [5-hydroxy-Ltryptophan]
% INHIBITION (screen for inverse agonism at 5-HT2A receptors) (5-HT2A receptor; [3]): 53%

CCNC(=O)N1CCN(CCCC(c2ccc(F)cc2)c2ccc(F)cc2)CC1 [Amperozide]
5-HT2C Receptor Negative Log EC50 (inverse agonism) (human 5-HT2C receptor): No Intrinsic | EC50 (5-HT2A receptor; [1]): 15.8 nM

O=C(CCCN1CCC(O)(c2ccc(Br)cc2)CC1)c1ccc(F)cc1 [Bromperidol]
5-HT2C Receptor Negative Log EC50 (inverse agonism) (human 5-HT2C receptor): No Intrinsic

OCCN1CCN(CC/C=C2/c3ccccc3Sc3ccc(C(F)(F)F)cc32)CC1 [CIS-FLUPENTIXOL]
5-HT2C Receptor Negative Log EC50 (inverse agonism) (human 5-HT2C receptor): No Intrinsic | Negative LOG EC50 (inverse agonism, inhibition of constitutive activity) (5-HT2A receptor): 8.04 +/− 0.10 | 5-HT2A Receptor Negative Log EC50 (inverse agonism) (5-HT2A receptor; [4]): 8.04 +/− 0.10 | % INHIBITION (screen for inverse agonism at 5-HT2A receptors) (5-HT2A receptor; [5]): 45%

CCN(CC)CCCN1c2ccccc2Sc2ccc(Cl)cc21 [Chlorproethizene]
5-HT2C Receptor Negative Log EC50 (inverse agonism) (human 5-HT2C receptor): <5.0 | 5-HT2A Receptor Negative Log EC50 (inverse agonism) (5-HT2A receptor; [4]): 7.70 +/− 0.33

CN1CCN(C2=Nc3ccccc3Sc3ccc(Cl)cc32)CC1 [Clothiapine]
EC50 (human 5-HT2C receptor): 479 nM | EC50 (5-HT2A receptor; [1]): 2.82 nM

CN1CCN(C2=Nc3ccccc3Oc3ccc(Cl)cc32)CC1 [LOXAPINE]
EC50 (human 5-HT2C receptor): 501 nM

CSc1ccc2c(c1)C(N1CCN(C)CC1)Cc1ccccc1S2 (centres unmarked) [METHIOTHEPIN]
% INHIBITION (screen for inverse agonism at 5-HT2A receptors) (5-HT2A receptor): 79%

CC1CCN(CCCC(=O)c2ccc(F)cc2)CC1 [Melperone]
5-HT2C Receptor Negative Log EC50 (inverse agonism) (human 5-HT2C receptor): No Intrinsic

CN1CCCCC1CCN1c2ccccc2Sc2ccc([S+](C)[O-])cc21 (centres unmarked) [Mesioridazine]
5-HT2C Receptor Negative Log EC50 (inverse agonism) (human 5-HT2C receptor): No Intrinsic | 5-HT2A Receptor Negative Log EC50 (inverse agonism) (5-HT2A receptor; [4]): 7.00 +/− 0.30

Cc1ccc(C2(O)CCN(CCCC(=O)c3ccc(F)cc3)CC2)cc1 [Moperone]
5-HT2C Receptor Negative Log EC50 (inverse agonism) (human 5-HT2C receptor): No Intrinsic

CN1CCN(C2Cc3ccccc3Sc3ccc(Cl)cc32)CC1.O=C(O)/C=C\C(=O)O (centres unmarked) [OCTOCLOTHEPIN]
5-HT2A Receptor Negative Log EC50 (inverse agonism) (5-HT2A receptor; [4]): 9.74 +/− 0.98 | % INHIBITION (screen for inverse agonism at 5-HT2A receptors) (5-HT2A receptor; [5]): 76%

Cc1nc2ccccn2c(=O)c1CCN1CCC(C(=O)c2ccc(F)cc2)CC1 [PIRENPIRONE]
% INHIBITION (screen for inverse agonism at 5-HT2A receptors) (5-HT2A receptor; [3]): 92%

CN1CCN(C2=Nc3ccccc3Cc3ccccc32)CC1 [Perlapine]
EC50 (human 5-HT2C receptor): 1290 nM | EC50 (5-HT2A receptor; [1]): 30.2 nM

CN(C)CCCN1c2ccccc2Sc2ccccc21 [Promazine]
5-HT2C Receptor Negative Log EC50 (inverse agonism) (human 5-HT2C receptor): Agonist

CN(C)CCCN1c2ccccc2Sc2cccnc21 [Prothypendyl]
5-HT2C Receptor Negative Log EC50 (inverse agonism) (human 5-HT2C receptor): Agonist | 5-HT2A Receptor Negative Log EC50 (inverse agonism) (5-HT2A receptor; [4]): 6.60 +/− 0.44

Cc1nc2sccn2c(=O)c1CCN1CCC(=C(c2ccc(F)cc2)c2ccc(F)cc2)CC1 [RITANSERIN]
Functional character at 5-HT2A receptor (inhibits signaling below baseline) (5-HT2A receptor; PSI vector expression, in words): inverse agonist

O=C(CCCN1CCC2(CC1)C(=O)NCN2c1ccccc1)c1ccc(F)cc1 [SPIPERONE]
5-HT2C Receptor Negative Log EC50 (inverse agonism) (human 5-HT2C receptor): No Intrinsic

CCN1CCCC1CNC(=O)c1cc(S(N)(=O)=O)ccc1OC (centres unmarked) [Sulpiride]
5-HT2C Receptor Negative Log EC50 (inverse agonism) (human 5-HT2C receptor): No Intrinsic

O=C(CCCN1CCC(O)(c2cccc(C(F)(F)F)c2)CC1)c1ccc(F)cc1 [TRIFLUPERIDOL]
EC50 (human 5-HT2C receptor): > 10000 nM | EC50 (5-HT2A receptor; [1]): 25.7 nM | EC50 (5-HT2A receptor; [2]): 25.7 nM

CN1CCN(CC/C=C2/c3ccccc3Sc3ccc(S(=O)(=O)N(C)C)cc32)CC1 [Thiothixene]
5-HT2C Receptor Negative Log EC50 (inverse agonism) (human 5-HT2C receptor): No Intrinsic

O=C1CC2(CCCC2)CC(=O)N1CCCCN1CCN(c2nsc3ccccc23)CC1 [Tiospirone]
EC50 (human 5-HT2C receptor): 513 nM | EC50 (5-HT2A receptor; [1]): 1.82 nM

OCCN1CCN(CC/C=C2\c3ccccc3Sc3ccc(C(F)(F)F)cc32)CC1 [Trans-Flupentixol]
5-HT2C Receptor Negative Log EC50 (inverse agonism) (human 5-HT2C receptor): 5.55 +/− 0.37 | Negative LOG EC50 (inverse agonism, inhibition of constitutive activity) (5-HT2A receptor): 6.77 +/− 0.21 | 5-HT2A Receptor Negative Log EC50 (inverse agonism) (5-HT2A receptor; [4]): 6.77 +/− 0.21
